In patent US20230049952A1, “METHODS AND COMPOUNDS FOR RESTORING MUTANT P53 FUNCTION” (PMV Pharmaceuticals, Inc., priority 2020, published 2023):

Tested on: p53 signaling pathway in MT373 tumors
Test: MT373 syngeneic sarcoma model: mouse p53 signaling pathway profiling panel
Type: in vivo

## CCn1c(C#CCNc2ccccc2)cc2cc(CNC3CCN(C)CC3)ccc21 [Compound 1, 1-Anilino-3-{1-ethyl-5-[(1-methyl-4-piperidylamino)methyl]-1H-indol-2-yl}-2-propyne]
75 mg/kg BIDx1, 48 h
  Dnmt1 fold increase or percent reduction vs vehicle control: 1.11 fold or %
  E2f1 fold increase or percent reduction vs vehicle control: 1.24 fold or %
  E2f3 fold increase or percent reduction vs vehicle control: 30.44 fold or %
  Egfr fold increase or percent reduction vs vehicle control: 34.80 fold or %
  Egr1 fold increase or percent reduction vs vehicle control: 39.68 fold or %
  Ep300 fold increase or percent reduction vs vehicle control: 1.01 fold or %
  Ercc1 fold increase or percent reduction vs vehicle control: 43.22 fold or %
  Esr1 fold increase or percent reduction vs vehicle control: 1.78 fold or %
  Fadd fold increase or percent reduction vs vehicle control: 1.13 fold or %
  Fas fold increase or percent reduction vs vehicle control: 10.67 fold or %
  Fasl fold increase or percent reduction vs vehicle control: 1.48 fold or %
  Foxo3 fold increase or percent reduction vs vehicle control: 3.18 fold or %
  Gadd45a fold increase or percent reduction vs vehicle control: 49.07 fold or %
  Hif1a fold increase or percent reduction vs vehicle control: 1.22 fold or %
  Il6 fold increase or percent reduction vs vehicle control: 80.18 fold or %
  Jun fold increase or percent reduction vs vehicle control: 29.72 fold or %
  Kras fold increase or percent reduction vs vehicle control: 1.01 fold or %
  Lig4 fold increase or percent reduction vs vehicle control: 1.05 fold or %
  Mdm2 fold increase or percent reduction vs vehicle control: 12.55 fold or %
  Mdm4 fold increase or percent reduction vs vehicle control: 19.35 fold or %
  Mel1 fold increase or percent reduction vs vehicle control: 31.09 fold or %
  Mlh1 fold increase or percent reduction vs vehicle control: 7.78 fold or %
  Msh2 fold increase or percent reduction vs vehicle control: 11.63 fold or %
  Myod1 fold increase or percent reduction vs vehicle control: 4.06 fold or %
  Nf1 fold increase or percent reduction vs vehicle control: 29.60 fold or %
  Nfkb1 fold increase or percent reduction vs vehicle control: 7.16 fold or %
  Pcna fold increase or percent reduction vs vehicle control: 38.45 fold or %
  Pmaip1 fold increase or percent reduction vs vehicle control: 1.15 fold or %
  Ppm1d fold increase or percent reduction vs vehicle control: 4.68 fold or %
  Prc1 fold increase or percent reduction vs vehicle control: 16.43 fold or %
  Prkca fold increase or percent reduction vs vehicle control: 13.73 fold or %
  Pten fold increase or percent reduction vs vehicle control: 1.01 fold or %
  Pttg1 fold increase or percent reduction vs vehicle control: 1.08 fold or %
  Rb1 fold increase or percent reduction vs vehicle control: 2.55 fold or %
  Rela fold increase or percent reduction vs vehicle control: 1.07 fold or %
  Rprm fold increase or percent reduction vs vehicle control: 2.09 fold or %
  Serpinb5 fold increase or percent reduction vs vehicle control: 1.90 fold or %
  Sesn2 fold increase or percent reduction vs vehicle control: 1.57 fold or %
  Sfn fold increase or percent reduction vs vehicle control: 1.00 fold or %
  Sirt1 fold increase or percent reduction vs vehicle control: 1.01 fold or %
  Stat1 fold increase or percent reduction vs vehicle control: 1.73 fold or %
  Tnf fold increase or percent reduction vs vehicle control: 1.36 fold or %
  Traf1 fold increase or percent reduction vs vehicle control: 1.38 fold or %
  Trp53bp2 fold increase or percent reduction vs vehicle control: 1.06 fold or %
  Trp53 fold increase or percent reduction vs vehicle control: 1.16 fold or %
75 mg/kg BIDx1, 72 h
  Apex1 fold increase or percent reduction vs vehicle control: 24.49 fold or %
  Atm fold increase or percent reduction vs vehicle control: 12.27 fold or %
  Atr fold increase or percent reduction vs vehicle control: 1.01 fold or %
  Bag1 fold increase or percent reduction vs vehicle control: 25.72 fold or %
  Bax fold increase or percent reduction vs vehicle control: 20.93 fold or %
  Bbc3 fold increase or percent reduction vs vehicle control: 1.08 fold or %
  Bcl2 fold increase or percent reduction vs vehicle control: 2.76 fold or %
  Bid fold increase or percent reduction vs vehicle control: 1.12 fold or %
  Birc5 fold increase or percent reduction vs vehicle control: 12.81 fold or %
  Brca1 fold increase or percent reduction vs vehicle control: 10.57 fold or %
  Brca2 fold increase or percent reduction vs vehicle control: 12.51 fold or %
  Btg2 fold increase or percent reduction vs vehicle control: 16.69 fold or %
  Casp2 fold increase or percent reduction vs vehicle control: 5.88 fold or %
  Ccnb1 fold increase or percent reduction vs vehicle control: 10.10 fold or %
  Ccne1 fold increase or percent reduction vs vehicle control: 1.09 fold or %
  Ccng1 fold increase or percent reduction vs vehicle control: 9.69 fold or %
  Ccnh fold increase or percent reduction vs vehicle control: 11.39 fold or %
  Cdc25a fold increase or percent reduction vs vehicle control: 7.34 fold or %
  Cdk1 fold increase or percent reduction vs vehicle control: 23.09 fold or %
  Cdk4 fold increase or percent reduction vs vehicle control: 22.60 fold or %
  Cdkn1a fold increase or percent reduction vs vehicle control: 1.42 fold or %
  Cdkn2a fold increase or percent reduction vs vehicle control: 39.53 fold or %
  Chek1 fold increase or percent reduction vs vehicle control: 20.93 fold or %
  Cradd fold increase or percent reduction vs vehicle control: 31.95 fold or %
  Cul9 fold increase or percent reduction vs vehicle control: 1.28 fold or %
  Dapk1 fold increase or percent reduction vs vehicle control: 1.11 fold or %
  Dnmt1 fold increase or percent reduction vs vehicle control: 1.02 fold or %
  E2f1 fold increase or percent reduction vs vehicle control: 1.14 fold or %
  E2f3 fold increase or percent reduction vs vehicle control: 15.87 fold or %
  Egfr fold increase or percent reduction vs vehicle control: 24.18 fold or %
  Egr1 fold increase or percent reduction vs vehicle control: 40.49 fold or %
  Ep300 fold increase or percent reduction vs vehicle control: 9.15 fold or %
  Ercc1 fold increase or percent reduction vs vehicle control: 29.53 fold or %
  Esr1 fold increase or percent reduction vs vehicle control: 1.39 fold or %
  Fadd fold increase or percent reduction vs vehicle control: 1.43 fold or %
  Fas fold increase or percent reduction vs vehicle control: 12.05 fold or %
  Fasl fold increase or percent reduction vs vehicle control: 1.42 fold or %
  Foxo3 fold increase or percent reduction vs vehicle control: 14.18 fold or %
  Gadd45a fold increase or percent reduction vs vehicle control: 25.11 fold or %
